Measured values from BindingDB's records for doi:10.1016/j.bmcl.2009.10.094 (Amgen, 2009).

Test: Antagonist activity at human CRTH2 receptor expressed in CEM cell assessed as inhibition of PGD2-induced cell migration after 3 hrs by transwell migration assay

Structure (SMILES): CC(=O)N(c1ccccc1)[C@@H]1C[C@H](C)N(C(=O)c2ccccc2)c2ccccc21 (racemic) [(+/-)-cis-N-(1-benzoyl-2-methyl-1,2,3,4-tetrahydroquinolin-4-yl)-N-phenylacetamide]
- EC50: 11 nM
